Here are results for 27 compounds from US8946197B2, “Transglutaminase TG2 inhibitors, pharmaceutical compositions, and methods of use thereof” (CHDI Foundation, Inc., priority 2009, dated 2015).

A word on the pIC50: it is −log10 of the IC50, conventionally taken in molar units.

This test concerns the target T1, human TG2 (Homo sapiens, UniProt P21980).
T1 sequence (P21980 1-687): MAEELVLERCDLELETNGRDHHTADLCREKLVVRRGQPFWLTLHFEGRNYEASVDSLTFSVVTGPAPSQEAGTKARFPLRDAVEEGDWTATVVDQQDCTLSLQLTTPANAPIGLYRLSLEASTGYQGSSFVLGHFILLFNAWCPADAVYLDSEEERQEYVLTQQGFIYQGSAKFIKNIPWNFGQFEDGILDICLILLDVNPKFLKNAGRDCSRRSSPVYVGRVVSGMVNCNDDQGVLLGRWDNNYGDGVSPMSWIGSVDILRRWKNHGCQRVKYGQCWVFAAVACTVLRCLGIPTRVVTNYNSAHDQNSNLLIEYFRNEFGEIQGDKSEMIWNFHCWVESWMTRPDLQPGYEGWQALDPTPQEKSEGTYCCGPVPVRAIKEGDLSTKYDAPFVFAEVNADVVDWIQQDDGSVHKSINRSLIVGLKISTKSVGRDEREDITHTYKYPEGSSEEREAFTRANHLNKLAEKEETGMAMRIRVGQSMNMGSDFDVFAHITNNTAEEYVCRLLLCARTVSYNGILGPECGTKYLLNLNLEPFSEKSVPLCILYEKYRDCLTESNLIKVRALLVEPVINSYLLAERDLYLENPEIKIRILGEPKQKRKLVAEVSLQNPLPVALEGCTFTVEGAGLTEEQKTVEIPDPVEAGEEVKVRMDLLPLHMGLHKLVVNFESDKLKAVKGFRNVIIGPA
Description: fluorescent screening assay for human TG2. The class given is biochemical. The conditions noted are these: 20 nM TG2, 8 μM N,N-dimethylated Casein, 16 μM KxD, pH 7.4, 37° C. On the procedure:
(§1) The fluorescent screening assay for human TG2 was performed as described herein: Assay conditions were 20 nM TG2, 8 μM N,N-dimethylated Casein (NMC) and 16 μM K×D (used for all transglutaminase assays) in 25 mM Hepes, pH 7.4, 250 mM NaCl, 2 mM MgCl2, 0.5 mM CaCl2, 0.2 mM DTT, 0.05% Pluronic F-127 at 37° C. A time point was taken with a microplate reader (Safire or Ultra, Tecan; ex: 350 nm, em: 535 nm) every 3 minutes for up to 2 hours and the initial linear reaction progress was used to determine the reaction velocity as a measure for enzyme activity. Assay conditions were identical for human TG6 and similar for human TG1 and mouse TG2 apart from enzyme concentration (mTG2 at 5 nM; TG1 at 10 nM) and CaCl2 concentration (0.2 mM for mTG2; 0.05 mM for TG1). Factor XIIIa was activated using 0.1 μg/μl thrombin (Sigma) in 35 mM Tris pH 8.0 for 20 min at 30° C. and the transamidation reaction was performed with 20 nM Factor XIIIa in 50 mM Tris pH 8.0, 1.25 mM CaCl2, 0.05% Pluronic, 0.2 mM DTT. TG3 was activated with 0.02 μg/μl thrombin under the same conditions as Factor XIIIa and assay conditions were 10 nM TG3 in 50 mM Hepes, pH 8, 20 mM CaCl2, 0.2 mM DTT, 0.05% Pluronic F-127.
as §1, with “A” for “The”

Each structure is given as a SMILES string. pIC50: −log10 of the molar value. Values joined by “and” are separate entries in the source; they are usually repeats but may differ in a detail not shown here. Equal entries are not always repeated.

`C=CC(=O)Nc1ccc(S(=O)(=O)N2CCC(C(=O)N(C)c3ccccc3)CC2)cc1` [1-(4-Acryloylamino-benzenesulfonyl)-piperidine-4-carboxylic acid methyl-phenyl-amide]: the negative-log IC50 (pIC50) was > 7.00 and 6.00 to 7.00.

Take `C=CC(=O)Nc1ccc(S(=O)(=O)N2CCN(C(=O)OC(C)(C)C)CC2)c(Cl)c1` [4-(4-Acryloylamino-2-chloro-benzenesulfonyl)-piperazine-1-carboxylic acid tert-butyl ester]: the negative logarithm of the IC50 (pIC50) was 6.00 to 7.00 and > 7.00. The figure for `C=CC(=O)Nc1ccc(S(=O)(=O)N2CCN(C(=O)OC(C)(C)C)CC2)c(OC)c1` [4-(4-Acryloylamino-2-methoxy-benzenesulfonyl)-piperazine-1-carboxylic acid tert-butyl ester] is 4.60 to 6.00; for `C=CC(=O)Nc1ccc(S(=O)(=O)N2CCN(C(=O)OC(C)(C)C)CC2)c(C)c1` [4-(4-Acryloylamino-2-methyl-benzenesulfonyl)-piperazine-1-carboxylic acid tert-butyl ester] it is 4.60 to 6.00; for `C=CC(=O)Nc1ccc(S(=O)(=O)N2CCN(C(=O)OCc3ccccc3)CC2)cc1F` [4-(4-Acryloylamino-3-fluoro-benzenesulfonyl)-piperazine-1-carboxylic acid benzyl ester] it is 4.60 to 6.00. In the case of `C=CC(=O)Nc1ccc(S(=O)(=O)N2CCN(C(=O)OCc3ccccc3)C(CC(=O)NC3C4CC5CC(C4)CC3C5)C2)cc1` (stereo not drawn) [4-(4-Acryloylamino-benzenesulfonyl)-2-(adamantan-2-ylcarbamoylmethyl)-piperazine-1-carboxylic acid benzyl ester] it was 6.00 to 7.00 and > 7.00. Turning to `C=CC(=O)Nc1ccc(S(=O)(=O)N2CCN(C(=O)OC(C)(C)C)C(c3ccco3)C2)cc1` (stereo not drawn) [4-(4-Acryloylamino-benzenesulfonyl)-2-furan-2-yl-piperazine-1-carboxylic acid tert-butyl ester], the negative-log IC50 (pIC50) was 6.00 to 7.00 and > 7.00.

In the case of `C=CC(=O)Nc1ccc(S(=O)(=O)N2CCN(C(=O)OC(C)(C)C)[C@@H](C(C)C)C2)cc1` [4-(4-Acryloylamino-benzenesulfonyl)-2-isopropyl-piperazine-1-carboxylic acid tert-butyl ester], the pIC50 is 6.00 to 7.00 and > 7.00. With `C=CC(=O)Nc1ccc(S(=O)(=O)N2CCN(C(=O)OCc3ccccc3)C(CC(=O)OC)C2)cc1` (stereo not drawn) [4-(4-Acryloylamino-benzenesulfonyl)-2-methoxycarbonylmethyl-piperazine-1-carboxylic acid benzyl ester], the pIC50 was 6.00 to 7.00 and > 7.00. Consider `C=CC(=O)Nc1ccc(S(=O)(=O)N2CCN(C(=O)OCc3ccccc3)[C@@H](C)C2)cc1` [4-(4-Acryloylamino-benzenesulfonyl)-2-methyl-piperazine-1-carboxylic acid benzyl ester], for which the negative-log IC50 (pIC50) was 6.00 to 7.00 and > 7.00. As for `C=CC(=O)Nc1ccc(S(=O)(=O)N2CCN(C(=O)OCc3cccc(F)c3F)CC2)cc1` [4-(4-Acryloylamino-benzenesulfonyl)-piperazine-1-carboxylic acid 2,3-difluoro-benzyl ester], the negative-log IC50 (pIC50) was 6.00 to 7.00 and > 7.00.

Regarding `C=CC(=O)Nc1ccc(S(=O)(=O)N2CCN(C(=O)OCc3cccc(OC)c3OC)CC2)cc1` [4-(4-Acryloylamino-benzenesulfonyl)-piperazine-1-carboxylic acid 2,3-dimethoxy-benzyl ester], the pIC50 is 6.00 to 7.00 and > 7.00.

Consider `C=CC(=O)Nc1ccc(S(=O)(=O)N2CCN(C(=O)OCc3c(F)cccc3F)CC2)cc1` [4-(4-Acryloylamino-benzenesulfonyl)-piperazine-1-carboxylic acid 2,6-difluoro-benzyl ester], for which the negative logarithm of the IC50 (pIC50) was 6.00 to 7.00 and > 7.00. Regarding `C=CC(=O)Nc1ccc(S(=O)(=O)N2CCN(C(=O)OCc3ccccc3Cl)CC2)cc1` [4-(4-Acryloylamino-benzenesulfonyl)-piperazine-1-carboxylic acid 2-chloro-benzyl ester], the negative-log IC50 (pIC50) is 6.00 to 7.00 and > 7.00. For `C=CC(=O)Nc1ccc(S(=O)(=O)N2CCN(C(=O)OCc3ccccc3C)CC2)cc1` [4-(4-Acryloylamino-benzenesulfonyl)-piperazine-1-carboxylic acid 2-methyl-benzyl ester], the pIC50 was 6.00 to 7.00 and > 7.00.

Consider `C=CC(=O)Nc1ccc(S(=O)(=O)N2CCN(C(=O)OCc3cc(F)cc(F)c3)CC2)cc1` [4-(4-Acryloylamino-benzenesulfonyl)-piperazine-1-carboxylic acid 3,5-difluoro-benzyl ester], for which the negative logarithm of the IC50 (pIC50) is 6.00 to 7.00 and > 7.00. As for `C=CC(=O)Nc1ccc(S(=O)(=O)N2CCN(C(=O)OCc3cccc(Cl)c3)CC2)cc1` [4-(4-Acryloylamino-benzenesulfonyl)-piperazine-1-carboxylic acid 3-chloro-benzyl ester], the negative-log IC50 (pIC50) is 6.00 to 7.00 and > 7.00. In the case of `C=CC(=O)Nc1ccc(S(=O)(=O)N2CCN(C(=O)OCc3cccc(F)c3)CC2)cc1` [4-(4-Acryloylamino-benzenesulfonyl)-piperazine-1-carboxylic acid 3-fluoro-benzyl ester] it was 6.00 to 7.00 and > 7.00; in that of `C=CC(=O)Nc1ccc(S(=O)(=O)N2CCN(C(=O)OCc3ccc(CCCC)cc3)CC2)cc1` [4-(4-Acryloylamino-benzenesulfonyl)-piperazine-1-carboxylic acid 4-butyl-benzyl ester], 4.60 to 6.00; in that of `C=CC(=O)Nc1ccc(S(=O)(=O)N2CCN(C(=O)OCc3ccc(F)cc3)CC2)cc1` [4-(4-Acryloylamino-benzenesulfonyl)-piperazine-1-carboxylic acid 4-fluoro-benzyl ester], > 7.00 and 6.00 to 7.00.

Regarding `C=CC(=O)Nc1ccc(S(=O)(=O)N2CCN(C(=O)OCc3ccc(C)cc3)CC2)cc1` [4-(4-Acryloylamino-benzenesulfonyl)-piperazine-1-carboxylic acid 4-methyl-benzyl ester], the pIC50 was 6.00 to 7.00 and > 7.00. For `C=CC(=O)Nc1ccc(S(=O)(=O)N2CCN(C(=O)OCc3ccc(C(C)(C)C)cc3)CC2)cc1` [4-(4-Acryloylamino-benzenesulfonyl)-piperazine-1-carboxylic acid 4-tert-butyl-benzyl ester], the pIC50 was 4.60 to 6.00. Take `C=CC(=O)Nc1ccc(S(=O)(=O)N2CCN(C(=O)NC3C4CC5CC(C4)CC3C5)CC2)cc1` (stereo not drawn) [4-(4-Acryloylamino-benzenesulfonyl)-piperazine-1-carboxylic acid adamantan-2-ylamide]: the pIC50 was 6.00 to 7.00 and > 7.00. Take `C=CC(=O)Nc1ccc(S(=O)(=O)N2CCN(C(=O)NCc3ccccc3)CC2)cc1` [4-(4-Acryloylamino-benzenesulfonyl)-piperazine-1-carboxylic acid benzylamide]: the pIC50 is 6.00 to 7.00 and > 7.00. As to `C=CC(=O)Nc1ccc(S(=O)(=O)N2CCN(C(=O)OC3CCCC3)CC2)cc1` [4-(4-Acryloylamino-benzenesulfonyl)-piperazine-1-carboxylic acid cyclopentyl ester], the negative-log IC50 (pIC50) was 6.00 to 7.00 and > 7.00.

With `C=CC(=O)Nc1ccc(S(=O)(=O)N2CCN(C(=O)N(C)C)CC2)cc1` [4-(4-Acryloylamino-benzenesulfonyl)-piperazine-1-carboxylic acid dimethylamide], the pIC50 was 6.00 to 7.00 and > 7.00. The figure for `C=CC(=O)Nc1ccc(S(=O)(=O)N2CCN(C(=O)OCC)CC2)cc1` [4-(4-Acryloylamino-benzenesulfonyl)-piperazine-1-carboxylic acid ethyl ester] is 6.00 to 7.00 and > 7.00.
